{"source": "patent US20120195978A1", "about": "“CAPCNA PEPTIDE THERAPEUTICS FOR CANCER” (Indiana University Research and Technology Corpora, priority 2009, published 2012)", "key": {"U937 cells": {"system": "U937 cells", "test": "Cytotoxic effects of R9-linked caPCNA peptides, % cell death by flow cytometry", "assay_type": "cell-based", "settings": "for Effect of alanine substitution on cytotoxic action of the peptide (in words): compared with unsubstituted R9-caPCNA peptide", "description": "R9 refers to a cell penetrating peptide that includes a polyarginine sequence e.g., nine contiguous arginine residues. Alanine substitutions in the caPCNA peptide affect its cytotoxic action. U937 cells were treated with each alanine substituted peptide and the scrambled peptide and % cell death evaluated by flow cytometry."}, "[1]": {"system": "HCC1937 cells lacking BRCA1", "test": "MTT assay, caPCNA peptides alone and in combination with cisplatin", "assay_type": "cell-based, human", "description": "Breast cancer cells were obtained from a patient harboring a hereditary mutation in BRCA1, a major component of DNA double strand break repair (HCC1937 cells). HCC1937 is a near-tetraploid cell line from mammary gland whose cells are homozygous for a frameshift mutation in BRCA1. The cell line is available at ATCC.\nMTT [3-(4,5-dimethylthiazol-2-yl)-2,5-diphenyltetrazolium bromide] assays were conducted with caPCNA peptides at a variety of time points both alone and in combination with a DNA damaging agent e.g., cisplatin in HCC1937 and HCC1937+wild-type BRCA1 cells. The MTT assay is based on the ability of a mitochondrial dehydrogenase enzyme from viable cells to cleave the tetrazolium rings of the pale yellow MTT dye and form dark blue formazan crystals. These formazan crystals are largely impermeable to cell membranes and thus accumulate within healthy cells. Solubilization of the cells by the addition of a detergent results in the liberation and solubilization of the crystals. The number of proliferating cells is directly proportional to the level of formazan product created. The color can then be quantified using a simple colorimetric assay. The results are read on a multiwall scanning spectrophotometer (ELISA reader). The peptides used in these experiments including caPCNA peptide, Q131A ([…] (SEQ ID NO: 5)), and P129A ([…] (SEQ ID NO: 3)) were ordered and obtained from Anaspec (Fremont, Calif.). ca PCNA peptide was dissolved in sterile 1×PBS solution to create a 1.5 mM stock concentration. caPCNA peptides with alanine substitutions (e.g., P129A (SEQ ID NO: 3) and Q131A (SEQ ID NO: 5)) were dissolved in sterile 1×PBS solution to create 1.0 mM stock solutions.\nMTT assays: The efficacy of caPCNA peptides (caPeptides) were tested using the MTT assays: HCC1937 and HCC137+wildtype BRCA1 cells were grown in DMEM 1× (supplemented with 10% fetal bovine serum and 5% penicillin/streptomycin) and were plated at a densities of 5.5×10^3 or 7×10^3, respectively, in 96 well plates (100 μL total volume per well) and allowed to attach overnight in a 37° C. incubator (5% CO2). Then, caPCNA peptide stock solution was diluted to final working concentrations in DMEM 1× (10% fetal bovine serum and 5% penicillin/streptomycin) of 150 μM, 100 μM, 75 μM, 50 and 25 μM. Media was removed from cells and replaced with media containing caPCNA peptide at various concentrations (200 μL total volume per well). Cells were cultured with caPCNA peptide-containing media for 24, 48 or 72 hours. At the appropriate treatment timepoint, 20 μL MTT (5 mg/mL in PBS) reagent was added to each well and plates were incubated for an additional 4 hours. Media/dye solution was then aspirated and 200 μL DMSO was added to each well. Plates were rocked at room temperature for five minutes to dissolve crystals and transferred to an ELISA plate reader. Absorbance was measured at 550 nm. The extent to which caPeptides inhibited cell proliferation was calculated as a percentage of the absorbance in each well containing caPCNA peptide relative to wells containing no caPCNA peptide (negative control) for both HCC1937 and HCC1937+wild-type BRCA1 cells.\nEfficacy of P129A (SEQ ID NO: 3) and Q131A (SEQ ID NO: 5) caPCNA peptides: Cells were cultured and plated in 96 well plates as described herein. P129A (SEQ ID NO: 3) or Q131A (SEQ ID NO: 5) stock solution was diluted to final working concentrations in DMEM 1× (10% fetal bovine serum and 5% penicillin/streptomycin) of 100 μM, 75 μM, 50 μM, 25 μM, and 12.5 μM. Media was removed from cells and replaced with media containing P129A (SEQ ID NO: 3) or Q131A (SEQ ID NO: 5) caPCNA peptides at various concentrations (200 μL total volume per well) and cells were cultured with peptide-containing media for 24 hours. After 24 hours, the MTT assay was completed and data analysis was performed as described herein. […]"}, "MCF 10A (non-malignant)": {"system": "MCF 10A (non-malignant)", "test": "Preferential killing of cancer cells by R9-caPeptide", "assay_type": "cell-based"}, "MCF 7 (breast cancer)": {"system": "MCF 7 (breast cancer)", "test": "Preferential killing of cancer cells by R9-caPeptide", "assay_type": "cell-based"}, "[2]": {"system": "HCC1937+wild-type BRCA1 cells", "test": "MTT assay, caPCNA peptides alone and in combination with cisplatin", "assay_type": "cell-based, human", "description": "As a genetically matched control, wild-type BRCA1 has been transduced into HCC1937 cells (referred to as HCC1937+wild-type BRCA1). HCC1937+wild-type BRCA1 cells were selected for maintenance of the vector using 1 μg/mL puromycin. All cells in these assays were used at passage numbers <25.\nMTT [3-(4,5-dimethylthiazol-2-yl)-2,5-diphenyltetrazolium bromide] assays were conducted with caPCNA peptides at a variety of time points both alone and in combination with a DNA damaging agent e.g., cisplatin in HCC1937 and HCC1937+wild-type BRCA1 cells. […] The color can then be quantified using a simple colorimetric assay. The results are read on a multiwall scanning spectrophotometer (ELISA reader). […]\nMTT assays: The efficacy of caPCNA peptides (caPeptides) were tested using the MTT assays: HCC1937 and HCC137+wildtype BRCA1 cells were grown in DMEM 1× (supplemented with 10% fetal bovine serum and 5% penicillin/streptomycin) and were plated at a densities of 5.5×10^3 or 7×10^3, respectively, in 96 well plates (100 μL total volume per well) and allowed to attach overnight in a 37° C. incubator (5% CO2). […] Plates were rocked at room temperature for five minutes to dissolve crystals and transferred to an ELISA plate reader. Absorbance was measured at 550 nm. […]"}, "[3]": {"system": "HCC1937+wild-type BRCA1 cells", "test": "Clonogenic survival assay after caPCNA peptide treatment", "assay_type": "cell-based, human", "settings": "100 μM peptide for 48 hours, 13 days growth", "description": "(§1) Clonogeizic survival assay: Clonogenic survival after caPCNA peptide treatment: The purpose of this experiment was to determine the effects of high caPCNA peptide treatment (100 μM caPCNA peptide for 48 hours) on ability of cells plated at low density to proliferate and form colonies. HCC1937 and HCC1937+wild-type BRCA1 cells were plated in 6-well plates and allowed to attach overnight at 37° C.\n(§2) Then, media was removed and replaced with 100 μM caPCNA peptide in DMEM 1× (10% fetal bovine serum and 5% penicillin/streptomycin). Untreated cells were used as a negative control. Plates were incubated with media containing peptide for 48 hours. Live cells were then collected, counted, plated at low density ([…] cells in 10 cm2 dishes) and allowed to grow in DMEM 1× (20% fetal bovine serum, 5% penicillin/streptomycin) for 13 days. After 13-day incubation, media was removed and plates were washed twice with 1×PBS. Cells were fixed with 70% EtOH for 10 minutes, dried, and stained for 1 hour with 20% Giemsa diluted in MilliQ water. Dye was removed; plates were rinsed, dried overnight and photographed. Images shown are representative of results obtained for treated and untreated HCC1937 and HCC1937+wild-type BRCA1 cells."}, "HCC1937 cells": {"system": "HCC1937 cells", "test": "Clonogenic survival assay after caPCNA peptide treatment", "assay_type": "cell-based, human", "settings": "100 μM peptide for 48 hours, 13 days growth; effect more pronounced than in cells with wild-type BRCA1", "description": "as §1, §2"}, "[4]": {"settings": "HCC1937 and HCC1937+wild-type BRCA1 cells, 24 hours"}}, "note": "No end group written: not given here.", "data": [{"compound": "A4-sub. Peptide: R9-linked caPCNA 126-133 peptide with alanine at position 4, P129 (SEQ ID NO: 62) (RRRRRRRRRLGIAEQEY; R9 linked)", "values": [{"measurement": "Effect of alanine substitution on cytotoxic action of the peptide (in words)", "setting": "U937 cells", "result": "increase in cytotoxicity"}]}, {"compound": "A1-sub. Peptide: R9-linked caPCNA 126-133 peptide with alanine at position 1, L126 (SEQ ID NO: 59) (RRRRRRRRRAGIPEQEY; R9 linked)", "values": [{"measurement": "Effect of alanine substitution on cytotoxic action of the peptide (in words)", "setting": "U937 cells", "result": "reduced cytotoxic activity"}]}, {"compound": "LGIAEQEY [Peptide P129A]", "values": [{"measurement": "Efficacy in comparison to wild-type peptides (MTT)", "setting": "[1]; [4]", "result": "enhanced efficacy"}]}, {"compound": "R9-caPeptide: R9 (nonaarginine)-linked caPCNA peptide of Table 6; exact sequence not printed there (LGIPEQEY; also: linked to nonaarginine (R9), site not given here; UniProt P12004 126-133, looked up, fragment) [Peptide R9-caPeptide]", "values": [{"measurement": "% Dead Cells", "setting": "MCF 10A (non-malignant)", "result": 18.2, "unit": "%"}, {"measurement": "% Dead Cells", "setting": "MCF 7 (breast cancer)", "result": 91.5, "unit": "%"}]}, {"compound": "A8-sub. Peptide: R9-linked caPCNA 126-133 peptide with alanine at position 8, Y133 (SEQ ID NO: 66) (RRRRRRRRRLGIPEQEA; R9 linked)", "values": [{"measurement": "Effect of alanine substitution on cytotoxic action of the peptide (in words)", "setting": "U937 cells", "result": "reduced cytotoxic activity"}]}, {"compound": "A5-sub. Peptide: R9-linked caPCNA 126-133 peptide with alanine at position 5, E130 (SEQ ID NO: 63) (RRRRRRRRRLGIPAQEY; R9 linked)", "values": [{"measurement": "Effect of alanine substitution on cytotoxic action of the peptide (in words)", "setting": "U937 cells", "result": "neutral change"}]}, {"compound": "A3-sub. Peptide: R9-linked caPCNA 126-133 peptide with alanine at position 3, I128 (SEQ ID NO: 61) (RRRRRRRRRLGAPEQEY; R9 linked)", "values": [{"measurement": "Effect of alanine substitution on cytotoxic action of the peptide (in words)", "setting": "U937 cells", "result": "decrease in cytotoxic action but not to the levels of aa126 or aa133"}]}, {"compound": "LGIPEAEY [Peptide Q131A]", "values": [{"measurement": "Efficacy in comparison to wild-type peptides (MTT)", "setting": "[1]; [4]", "result": "enhanced efficacy"}, {"measurement": "Rank of efficacy among the peptides tested (MTT)", "setting": "[1]; [4]", "result": "appears to be more effective of these peptides tested"}]}, {"compound": "A2-sub. Peptide: R9-linked caPCNA 126-133 peptide with alanine at position 2, G127 (SEQ ID NO: 60) (RRRRRRRRRLAIPEQEY; R9 linked)", "values": [{"measurement": "Effect of alanine substitution on cytotoxic action of the peptide (in words)", "setting": "U937 cells", "result": "neutral change"}]}, {"compound": "A6-sub. Peptide: R9-linked caPCNA 126-133 peptide with alanine at position 6, Q131 (SEQ ID NO: 64) (RRRRRRRRRLGIPEAEY; R9 linked)", "values": [{"measurement": "Effect of alanine substitution on cytotoxic action of the peptide (in words)", "setting": "U937 cells", "result": "increase in cytotoxicity"}]}, {"compound": "Unsub. Peptide: R9-linked caPCNA 126-133 peptide LGIPEQEY, unsubstituted (SEQ ID NO: 58) (RRRRRRRRRLGIPEQEY; R9 linked)", "values": [{"measurement": "% cancer cell death", "setting": "U937 cells; flow cytometry", "result": "43 ± 10", "unit": "%"}]}, {"compound": "A7-sub. Peptide: R9-linked caPCNA 126-133 peptide with alanine at position 7, E132 (SEQ ID NO: 65) (RRRRRRRRRLGIPEQAY; R9 linked)", "values": [{"measurement": "Effect of alanine substitution on cytotoxic action of the peptide (in words)", "setting": "U937 cells", "result": "increase in cytotoxicity"}]}, {"compound": "N.N.[Cl][Pt][Cl]", "note": "[cisplatin, reference compound]", "values": [{"measurement": "IC50", "setting": "[1]; HCC1937 cells lacking BRCA1, cisplatin alone, FIG. 4A, read-out: IC50 value for cisplatin alone (growth inhibition)", "result": "~155", "unit": "µM"}, {"measurement": "Sensitivity of cells to cisplatin (MTT)", "setting": "[1]; HCC1937 cells, FIG. 3A", "result": "relatively resistant"}, {"measurement": "Sensitivity of cells to cisplatin (MTT)", "setting": "[2]; HCC1937+wild-type BRCA1 cells, FIG. 3B", "result": "relatively resistant"}, {"measurement": "IC50", "setting": "[2]; HCC1937 cells with BRCA1, cisplatin alone, FIG. 4B, read-out: IC50 value for cisplatin alone (growth inhibition)", "result": "> 200", "unit": "µM"}]}, {"compound": "caPCNA peptide: caPCNA-derived peptide (aa 126-133) obtained from Anaspec; the figure legends call it R9-caPCNA / R9-PCNA peptide (LGIPEQEY; also: R9 (nonaarginine) linked, site not given here; UniProt P12004 126-133, looked up, fragment)", "values": [{"measurement": "Sensitivity of cells to caPCNA peptides (MTT)", "setting": "[1]; HCC1937 in comparison to HCC1937+wild-type BRCA1 cells, 24, 48 and 72 hour treatment", "result": "trend of increased sensitivity"}, {"measurement": "Colony formation", "setting": "[3]", "result": "inhibits colony formation"}, {"measurement": "Colony formation", "setting": "HCC1937 cells", "result": "inhibits colony formation"}]}]}
